Positions of bridges follow the written chain, without caps; N, C: chain ends. Non-standard residues stand in square brackets, D forms with d. Residues, ends and D or L forms follow the SMILES beside them. Chains are numbered I, II in the order given. AEEA = NCCOCCOCC(=O)O
What was measured:
[1] = biological target: HBc's interaction to the surface protein L-HBs (Hepatitis B virus genotype D subtype ayw, UniProt P03146); details: result in words; cited from earlier work
HBc capsids [2] = biological target: T1, HBc capsids (Hepatitis B virus genotype D subtype ayw, UniProt P03146); assay: Cryo-EM of HBc capsids in complex with peptide dimers; format: binding; design: Full length wild type (fl wt) HBc; made in house; host or cells: E. coli; details: from EM-maps
Protocol: In a plasma cleaner (model PDC-002. Harrick Plasma, Ithaca, NY, USA) holey carbon grids (R1.2/1.3, 300 mesh Cu grids, Quantifoil Micro Tools, Jena, Germany) were made hydrophilic by plasma discharging. This was done at a pressure of 29 Pa for 2 minutes using ambient air as plasma medium at "medium power" of the instrument. First, solutions of purified HBc (200 µM) in complex with the P1dC- and the SLLGRM-dimer (each 400 µM) were prepared in buffer A and 3.5 µl aliquots of each sample were applied onto the grids. For plunge freezing of grids ethane was used as medium (liquefied by liquid nitrogen) with the help of a Vitrobot (mark IV, FEI Company, Hillsboro, OR, USA) using filter papers of Whatman (type 541). The Vitrobot had following settings: no wait and drain times, 6 s of blot time, blot force of 25 and a nominal humidity of 100 %. The frozen grids were stored in liquid nitrogen for at least one night before being used for image acquisition.
Cryo-EM was done as previously described (Makbul, Kraft, et al., 2021). In brief: Movies were acquired with the software EPU on a Krios G3 electron microscope equipped with a Falcon III camera (Thermo Fisher Scientific, Hillsboro, OR, USA) in linear mode at a magnification of 75,000 with an accelerating voltage of 300 kV. The total exposure was 40 e-/Å^2 and was fractionated across 20 fractions. […]

HBc = biological target: T2, HBc (Hepatitis B virus genotype D subtype ayw, UniProt P03146); assay: Turbidity assay of HBc solutions at 350 nm; details: 50 µM HBc solution, RT
T2 construct: Full length wild type (fl wt) HBc; made in house; host or cells: E. coli
Protocol: The concentrations of the P1-, P2- and SLLGRM-dimers were varied between 0.1-100 µM and the concentration of HBc kept constant at 10 µM for the P1- and P2-dimer and at 50 µM for the SLLGRM-dimer. All experiments were performed using a standard photometer (GENESYS™ UV/VIS spectral photometer, Thermo Fisher Scientific, Hillsboro, OR, USA) at RT and at a wavelength of 350 nm using disposable UV transparent cuvettes.

physchem = details: buffer obtained from the dialysis of capsids (buffer A), pH 7.5, aqueous buffer
Protocol: Purified and pooled fractions (ca 8 ml) of capsids were filtered (Rotilabo syringe filter with a pore size of 220 nm, Carl Roth GmbH Co. KG, Karlsruhe, Germany), dialysed against 1.4 L buffer A (40 mM HEPES, 200 mM NaCl, 1 mM MgCl2, 1 mM CaCl2, pH 7.5) using a dialysis membrane tube (Spectra Por Biotech cellulose ester tube, 1 MDa MWCO, Spectrum Laboratories, Inc., Rancho Dominguez, CA, USA). The dialysis was performed at 4 °C under gentle stirring for 16 h overnight. Next day, the dialysed sample was removed from the dialysis tube and concentrated in a centrifuge using a concentrator (30 kDa MWCO Spin-X UF 6 mL, Corning Inc., Corning, NY, USA). Before the determination of the concentration by the Bradford assay (Roti Nanoquant, Carl Roth GmbH Co. KG, Karlsruhe, Germany) the concentrate was filtered (centrifugal filter unit Ultrafree MC, pore size of 100 nm, Merck KGaA, Darmstadt, Germany). The dimeric peptides were dissolved in the buffer obtained from the dialysis of capsids. […] Before filling the ITC cell and syringe, all samples were degassed for 10 minutes at 20 °C (ThermoVac, Malvern Panalytical, Malvern, Worcestershire, UK). Using a MicroCal iTC200 instrument (Malvern Panalytical, Malvern, Worcestershire, UK) solutions of dimeric peptides were titrated into solutions of capsids according to specifications in the Table 2. […]

fl wt HBc capsids = biological target: T3, fl wt HBc capsids (Hepatitis B virus genotype D subtype ayw, UniProt P03146); assay: Isothermal titration calorimetry (ITC) of peptide dimers with HBc capsids; format: binding
T3 construct: Full length wild type (fl wt) HBc; made in house; host or cells: E. coli
Protocol: Binding stoichiometry, binding affinity and thermodynamic parameters were determined. Table 2 iTC200 instrument's specifications used for the interaction analysis between peptide-dimers and capsids.

[3] = test system: HBV production in Hep G2 human hepatoblastoma cell lines; details: cited from earlier work; for IC50: inhibition of HBV production
HBc capsids [4] = biological target: T1, HBc capsids; details: monomeric peptides; cited from earlier work
[5] = biological target: full-length wild type HBc (fl wt HBc) (Hepatitis B virus genotype D subtype ayw, UniProt P03146); details: result in words; cited from earlier work
[6] = biological target: full length wild type HBV core protein (fl wt HBc), capsids (Hepatitis B virus (genotype D; strain ayw)) (UniProt P03146); assay: cryo-EM maps of HBc capsids with bound dimer
[7] = biological target: full length wild type HBV core protein (fl wt HBc), capsids (Hepatitis B virus (genotype D; strain ayw)) (UniProt P03146); assay: ITC, dimer titrated into fl wt HBc capsids, 20 °C, one site model
[8] = biological target: full length wild type HBV core protein (fl wt HBc), capsids (Hepatitis B virus (genotype D; strain ayw)) (UniProt P03146); assay: ITC KD of the dimer against the literature KD of monomeric SLLGRM

## ALLGRMKG [21]
[1]
  inhibition of HBc's interaction to L-HBs: inhibited

## CSCC[C@H](NC(=O)[C@H](CCCNC(=N)N)NC(=O)CNC(=O)[C@H](CC(C)C)NC(=O)[C@H](CC(C)C)NC(=O)[C@@H](N)CO)C(=O)NCCOCCOCC(=O)NCCOCCOCC(=O)NCCOCCOCC(=O)NCCOCCOCC(=O)NCCCC[C@@H](NC(=O)COCCOCCNC(=O)COCCOCCNC(=O)COCCOCCNC(=O)COCCOCCNC(=O)[C@H](CCSC)NC(=O)[C@H](CCCNC(=N)N)NC(=O)CNC(=O)[C@H](CC(C)C)NC(=O)[C@H](CC(C)C)NC(=O)[C@@H](N)CO)C(=O)O [SLLGRM-dimer] (I: H-SLLGRM[AEEA][AEEA][AEEA][AEEA][dK]-OH / II: H-SLLGRM[AEEA][AEEA][AEEA][AEEA]; amide I:11-II:C; N-terminus and C-terminus assumed)
HBc capsids [2]
  molar ratio to HBc capsids: 0.25
HBc
  concentration inducing turbidity: high micromolar concentrations
physchem
  solubility: ≥ 8 mM
Fl wt HBc capsids; KD of dimer versus KD of monomer
  affinity increase over the respective monomers: 26 fold
Fl wt HBc capsids; association constant, ITC at 20 °C, refers to monomeric HBc
  Ka: 208200 ±31284 (1)/(M)
Fl wt HBc capsids; binding enthalpy, ITC
  ΔH: -25316 ± 2748 cal/mol
Fl wt HBc capsids; binding entropy, ITC
  ΔS: -62 ±10 (cal)/(mol × K)
Fl wt HBc capsids; stoichiometry, ITC at 20 °C, one site model, refers to monomeric HBc
  N: 0.145 ±0.023

## SLLGRMKGA [22]
[3]
  IC50: 2400 nM

## SLLGRMKG [23]
[3]
  IC50: 6400 nM

## MHRSLLGRMKGA [Pep1]
HBc capsids [4]
  Kd: 26 µM

## SLLGRM
HBc capsids [4]
  Kd: 130 µM

## GSLLGRMKGA [Pep2]
HBc capsids [4]
  Kd: 68 µM
[3]; at high micromolar concentrations
  production HB viruses reduced to: ca. 30%
[3]
  IC50: 800 nM

## LLGRMK
[5]
  binding to fl wt HBc: bound

## SLLGRM-dimer (peptide)
[6]
  molar ratio: 0.25
[7]
  Kd: 4.89 µM
  N (stoichiometry): 0.145
  binding enthalpy (ΔH): -25300
  binding entropy (ΔS): -62
[8]
  fold affinity increase over the respective monomer: 26 fold

— EP4424699A1, “HBV CORE PROTEIN BINDING COMPOUNDS AND USES THEREOF” (Julius-Maximilians-Universität Würzburg, priority 2023, dated 2024)
